Reference: patent US11066638B2 (priority 2016, dated 2021)
Converted amounts (≈) assume the structure as drawn. Like-named read-outs stand apart in the source and are kept apart here.

Key:
[1] = system: Listeria monocytogenes; conditions: for colony formation of bacterial ghosts plated on BHI agar media: MIC
Method: Specifically, a BHI liquid medium was inoculated with Listeria, and incubated for 72 hours. After incubation, centrifugation was performed at 10,000 g for 10 minutes to obtain the cultured Listeria. […] Listeria was obtained at 15, 30, 45, 60 and 90 minutes after the beginning of culture and the lysis rate was measured.

[2] = system: Listeria monocytogenes; conditions: 18 hours
[3] = system: Listeria monocytogenes; conditions: BHI liquid medium, 10^6 CFU/ml, 37° C., 18 hours, optical density at 600 nm
Method: (§1) Specifically, Listeria monocytogenes, a gram-positive bacterium, was cultured in a brain-heart infusion (BHI) medium at 7° C. and 200 rpm under shaking conditions overnight, and then the degree of bacterial growth was determined by measuring optical density at 600 nm using a Biochrom Libra S22 spectrophotometer.

[4] = system: Listeria monocytogenes; experiment: microbe, parasite or virus in culture; conditions: 18 h, read-out: minimum inhibitory concentration (MIC)
Method: as §1

[5] = treated with 6.25 mg/ml (MIC), plated without dilution, 37° C.

SMILES: [Na+].[OH-] [sodium hydroxide]
- time to formation of bacterial ghosts after treatment ([1]; MIC 6.25 mg/ml, 37° C., 10^6 CFU/ml Listeria in PBS): about 10 minutes
- colony formation of bacterial ghosts plated on BHI agar media ([1]; ghosts prepared from 10 minutes after treatment): colonies were not formed
- colony formation on BHI agar medium ([2]; treated with 3.125 mg/ml, plated without dilution, 37° C.): thousands of colonies were formed
- colony formation on BHI agar medium [2, 5]: no viable colony was formed
- minimum inhibitory concentration (MIC) [3]: 6250 µg/mL

SMILES: Cl [hydrochloric acid]
- colony formation of bacterial ghosts plated on BHI agar media ([1]; ghosts prepared from 15 minutes after treatment): colonies were not formed
- lysis rate of gram-positive bacteria ([1]; at about 15 minutes after the MIC has been applied): 100%
- colony formation on BHI agar medium ([2]; treated with 3.125 mg/ml, diluted to a dilution factor of 1/10, 37° C.): tens of colonies were also formed
- colony formation on BHI agar medium [2, 5]: no viable colony was formed
- MIC [4]: 6250 µg/mL (≈ 171 mM)
